# Test results taken from patent US7153839B2, “Method of protecting erythricytes, in particular for improvement of blood cytopenia” (Biocell Laboratories, priority 2000, dated 2006).
# Key:
# [1] = system: human thrombocytes; assay: Aggregation of thrombocytes induced by arachidonic acid in vitro; format: cell-based; settings: Table 2; 0.06 mg per tube
# Method: We studied the anti-inflammatory action of nucleic acids on the model of thrombocyte aggregation in vitro by the method of Born (Born L.V.R. The aggregation of blood platelets by diphosphate and its reversal, Nature, […], P. 327, 1962). Venous human blood was taken in silicon tubes of Becton Dickson, which contained a 3.8% solution of sodium citrate. In order to receive thrombocytic-rich plasma, citrate blood was centrifuged at 1500 rev/mm for 7 minutes. Plasma free of thrombocytes was obtained by centrifuging 2.0 ml of plasma taken from medium layers for 15 minutes at 3000 rev/mm. We counted the number of thrombocytes in the thrombocytic-containing plasma, which was later diluted by the thrombocyte-free plasma to the final concentration […].
# An Aggregometer produced by “Tromlite” (Poland) was used for thrombocyte aggregation. In order to induce aggregation, arachidonic acid was diluted in Michaelis buffer in the proportion 1 mg/ml. Two tubes were inserted in the aggregometer, one of which contained 0.2 ml of thrombocyte-containing plasma, while the other one had 0.2 ml of thrombocyte-free plasma and 0.1 ml of isotonic solution of sodium chloride. […] Then, the light-transparency of thrombocyte-containing plasma was measured during 5 minutes, which indicated the stage of thrombocyte aggregation. […]
# [2] = system: NO-synthetase (NOS); assay: NOS activity in mouse erythrocytes after carrageenan injection; format: in vivo; settings: 320 min after carrageenan; LPS control 2.232
# Method: (§1) […] We tested the influence of yeast RNA on the activity of NO-synthetase ferment (NOS) in blood plasma and in erythrocytes, as well as on the content in blood plasma of free arachidonic acid and products of its oxide metabolism, carried out in lypoxygenase (leukotriene C4 (LTC4)) and cyclooxygenase (thromboxane B2 (T×B2)) ways.
# (§2) The activity in blood plasma and erythrocytes of the enzyme NO-synthetase was measured by colometric method applied to the outcome of reaction, nitrite anion. (Yan L., Vandivier R. W., Suffredini A. F., Danner R. L., Human polymorphonuclear leukocytes lack detectable nitric oxide synthetase activity. J. Immunol., 15; 153(4): 1825–1834; 1994). […] The reaction was initiated by adding 0.1 ml of a probe containing 500 microgram of general protein determined by Bredford method. […]
# (§3) Nitrite anion was determined using the reagent of Gris in colometric reaction as decribed in Green et al. (Green L. C., Waagner D. A., Glogowski J. et al., Analysis of nitrate, nitrite and [15N] nitrate in biological fluids, Anal. Biochem., 126(1): 131–138;1982). […] In 5 minutes after mixing, the extinction at 543 hm was measured. The quantity of NO2 was measured by standard curve built for NaNO2.
# [3] = system: NO-synthetase (NOS); assay: NOS activity in mouse blood plasma after carrageenan injection; format: in vivo; settings: 320 min after carrageenan; LPS control 110.48
# Method: as §1, §2, §3
# [4] = system: carrageenan-induced swelling of leg; assay: Local inflammation (leg swelling) provoked by carrageenan in mice; format: in vivo, BALB-line mice; settings: for % inhibition of swelling: 0.4 mg per mouse (20 mg/kg), 20 mg/kg
# Method: To study the anti-inflammatory action of drugs, we used the model of local inflammation in mice. Inflammation in BALB-line mice was modeled with the help of carrageenan, a classical phlogogenic agent. 30 minutes before the injection, the mice were injected intra-abdominally with drug, which was dissolved in […] of physiological solution (PS). Carrageenan […] produced by Serva Fein Biochemica (Germany) was prepared in the form of a 1% solution in PS. The obtained viscous solution, 40 mcl, was injected subplantally in the left back leg. The right, intact leg was taken as control. 4 hours later after the carrageenan injection, the mice were killed via decapitation, and their back legs were detached from the bodies on the same level, a little higher the ankles. After that, the legs were carefully weighted, with 1 mg accuracy. Obtained results were statistically processed by the MultiFac 2.2. SPSS 8/0 software. The anti-inflammatory effect of the drug was calculated by the formula:
# [formula] • Vk—average increase of volume (mass) of the swollen leg in control mice • Vo—average increase of volume (mass) of the swollen leg in treated mice
# In the first test, mice were divided into 8 groups. The first group consisted of control animals, which were injected intra-abdominally with 2 ml of PS. Also, […] of PS was injected in the left leg. This group was studied to determine the influence of injection on the course of inflammation in a leg. The second group, control with LPS, took […] of PS intra-abdominally and received LPS injections in the left leg. The third group took […] of aspirin dissolved in PS in the concentration 0.4 mg per mouse. In the fourth, fifth and sixth groups, yeast RNA-D was dissolved in PS in respective concentrations 5, 10, and 15 mg in 2 ml of PS per animal. LPS was injected in the left leg to provoke swelling. The seventh and eighth groups were treated respectively by DNA-TC and DNA-EC, which were injected in the concentration 15 mg per mouse, as explained above for RNA-treated groups.
# The right legs were left intact. 4 hours later, the animals were decapitated. […]
# [5] = system: myeloperoxydase; assay: Myeloperoxydase activity in the ischemized part of myocardium; format: in vivo, rats; settings: 30 minutes occlusion, 1 hour reperfusion; control 211.8+16.7
# Excerpt: The mieloperoxydase activity (MPA) was studied in myocardium using the method of Bradley et al. (Bradley P. P., Priebet D. A., Christensen R. D. et al., Measurement of cutateous inflammation: estimation of neutrophil content with an enzyme marker, J. Invest. Dermatol., 78(3): 206–209; 1982) in the modification by Grisfwold et al. (Griswold D. E., Hillegass L. M., Hill D. E. et al., Method for quantification of myocardial infarction and inflammatory cell infiltration in rat cardial tissue, J. Pharmacol. Methods, 20(3): 225–235, 1988). For this purpose, the heart was extracted and rinsed in physiological solution, which was cooled to 0° C. After rinsing, a section of myocardium (1 g of the tissue) in the central zone of ischemia was cut out and frozen to −30° C. The final fraction was prepared as a 10% haemogenate with extractive buffer containing 0.5% hexadecyltrimethyl ammonium bromide (pH 6.0) at room temperature. […]
# The upper fraction (30 microliters) was used for a reaction with 0.167 mg/ml of O-dianisodine in 50 millimole/l of potassium phosphate buffer (pH 6.0). […] The reaction had been continuously tested for 5 minutes at 460 hm wave length, and with readings taken every minute. A chart indicating the readings was prepared. A unit of MPA was defined as the quantity of ferment, which destroys 1 micromole/min H2O2 at 25° C. The data was calculated as MPA per 1 gram of tissue. […]
# [6] = system: thromboxane B2; assay: Thromboxane B2 in mouse blood plasma after carrageenan injection; format: in vivo; settings: 320 min after carrageenan; LPS control 358.240
# Method: as §1
# (§4) The content of free arachidonic acid (AA) was measured by two-dimensional thin-layer chromatography (TLC) as discussed in Tsunamoto et al. (Tsunamoto K., Todo S., Imashuku S. Separation of prostaglandines and thromboxane by two-dimensional thin-layer chromatography. J. Chromatog. 3; 417(2); 414–419; 1987. The content of stable metabolite of thromboxane A2 (TXB2) was studied in probes by radio-immune method with TXB2 [^3H] RIA Kit, by Amersham International PLC (England) (McCann D. S., Tokarsky J., Sorkin R. P., Radioimmunoassay for plasma thromboxane B2. Clin. Chem., 27(8): 1417–1420, 1981). The content of LTC4 was tested in probes by radio-immune method with LTC4 [^3H] RIA Kit by Du Pont Ltd. Hertfordshire, (UK) (Levine L., Morgan R. A., Levis R. A. et al., Radioimmunoassay of the leukotrienes of slow reactivity substance of anaphylaxis. Proc. Natl. Acad. Sci. USA. 78(12): 7692–7696; 1981).
# [7] = system: free arachidonic acid; assay: Free arachidonic acid in mouse blood plasma after carrageenan injection; format: in vivo; settings: 320 min after carrageenan; LPS control 3.37
# Method: as §1, §4
# [8] = system: leukotriene C4; assay: Leukotriene C4 in mouse blood plasma after carrageenan injection; format: in vivo; settings: 320 min after carrageenan; LPS control 226.78
structure (smiles),measurement,setting,value
"CC(=O)Oc1ccccc1C(=O)O [Aspirin, aspirin]","inhibition of thrombocyte aggregation (index of aggregation), M",[1],38.66%
same,"activity of NOS in erythrocytes, M",[2],3.613 picomol per 1 min per 1 mg of protein
same,"activity of NOS in blood plasma, M",[3],42.24 picomol per 1 min per 1 mg of protein
same,% inhibition of swelling,[4],18.03%
same,% inhibition of swelling,[4]; listed as aspirin,18.03%
same,increase of mass of the swollen leg,"[4]; 0.4 mg per mouse intra-abdominally, 4 hours after carrageenan, Control + LPS 43.31",35.5 +
same,activity of myeloperoxydase in ischemized myocardium,[5],176.1+5.9 units per 1 g of tissue
same,content of thromboxane B2 in blood plasma,[6],153.903 picomol per 1 mg of protein
same,content of free arachidonic acid in blood plasma,[7],2.64 nanomol per 1 mg of protein
same,content of leukotriene C4 in blood plasma,[8],93.99 picomol per 1 mg of protein
